# US6569860B2, “Alkoxycarbonylamino heteroaryl carboxylic acid derivatives as IP antagonists” (Roćhe Palo Alto LLC, priority 2001, dated 2003)
row,melting point,SMILES
1,184 to 185 °C,"O=C(Nc1cnc(-c2ccccc2)nc1C(=O)O)OCc1cc2cc(-c3ccccc3)ccc2o1 [Example 1, 2-Phenyl-5-(5-phenyl-benzofuran-2-ylmethoxycarbonylamino)-pyrimidine-4-carboxylic Acid]"
2,220.6 to 220.8 °C,"O=C(Nc1nn(-c2ccccc2)cc1C(=O)O)OCc1cc2cc(-c3ccccc3)ccc2o1 [Example 2, 1-Phenyl-3-(5-phenyl-benzofuran-2-ylmethoxycarbonylamino)-1H-pyrazole-4-carboxylic Acid]"
3,235.7 to 238.9 °C,"O=C(Nc1cnccc1C(=O)O)OCc1cc2cc(-c3ccccc3)ccc2o1 [Example 3, 3-(5-Phenyl-benzofuran-2-ylmethoxycarbonylamino)-isonicotinic Acid]"
